Measurements reported in patent publication US10202343B2, “MIF modulators” (YALE UNIVERSITY, priority 2008, dated 2019).
Like-named read-outs stand apart in the source and are kept apart here. Each block holds one compound with its values, some of them ahead of it.

Tests used:
[1] = biological target: T1, Human MIF (MIF tautomerase activity) (Homo sapiens, UniProt P14174); experiment: HPP tautomerase assay; assay type: biochemical; details: for IC50: read-out: HPP IC50
T1 construct: made in house
T1 sequence (P14174 2-115 limits assumed): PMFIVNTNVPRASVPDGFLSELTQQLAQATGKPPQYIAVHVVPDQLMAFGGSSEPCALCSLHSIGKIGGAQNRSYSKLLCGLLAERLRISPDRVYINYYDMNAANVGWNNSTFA

[2] = biological target: T2, MIF-CD74 Binding (biotin-labeled recombinant human MIF, recombinant human MIF receptor CD74 ectodomain) (Homo sapiens, UniProt P14174); experiment: MIF-CD74 binding (capture) assay; design: concentration of C74 % MaxInhib (number after @): unit not given here; details: for % Bound: Table 19; for CD74 % MaxInhib / C74 % MaxInhib: number before @
T2 sequence (P14174 2-115 limits assumed): T1 sequence (P14174 2-115 limits assumed)

[3] = Table 19, data cell c5, read-out: CD74 IC50
[4] = Table 13, data cell c5, number before @

activity in the HPP tautomerase assay [1]: inactive
activity in the capture assay [2]: inactive
SMILES: COC(=O)CC1CC(c2ccc(O)cc2)=NO1 (stereo not drawn) [ISO-1, reference compound]

% Bound [2]: 96%
IC50 [2, 3]: 6000 µM
SMILES: Oc1ccc(-c2cn(Cc3ccccc3)nn2)cc1 [MIF-002]

IC50 ([2]; Table 18, read-out: CD74 IC50): 3.5 µM
SMILES: Oc1ccc(-n2cc(Cc3ccccc3)nn2)cc1 [MIF-003]

% Bound [2]: 94%
SMILES: COc1ccc(Cn2cc(-c3ccc(O)cc3)nn2)cc1 [MIF-004]

% Bound [2]: 67%
IC50 [2, 3]: 100 µM
SMILES: COc1cccc(Cn2cc(-c3ccc(O)cc3)nn2)c1 [MIF-005]

IC50 ([1]; Table 20): 970 µM
SMILES: Oc1ccc(-c2cn(-c3cccnc3)nn2)cc1 [MIF-007]

IC50 ([1]; Table 20): 32 µM
SMILES: Oc1ccc(-c2cn(-c3cncc4ccccc34)nn2)cc1 [MIF-008]

HPP IC50 ([1]; Table 21): agonist
IC50 ([2]; Table 21, column beside HPP IC50): Agonist
SMILES: Oc1ccc(-n2cc(-c3cncc4ccccc34)nn2)cc1 [MIF-021]

% Bound [2]: 100%
SMILES: Cc1cccc(Cn2cc(-c3ccc(O)cc3)nn2)c1 [MIF-031]

% Bound [2]: 100%
SMILES: Cc1ccccc1Cn1cc(-c2ccc(O)cc2)nn1 [MIF-032]

HPP IC50 ([1]; Table 19, data cell c6): agonist
CD74 IC50 ([2]; Table 19, data cell c5): agonist
SMILES: COc1ccccc1Cn1cc(-c2ccc(O)cc2)nn1 [MIF-033]

IC50 ([1]; Table 19, data cell c6): 0.5 to 1 µM
IC50 [2, 3]: 1.2 µM
SMILES: COc1cccc(Cn2cc(-c3ccc(O)cc3)nn2)c1OC [MIF-034]

IC50 ([2]; Table 20, read-out: CD74 IC50): 300 µM
SMILES: Oc1ccc(-c2cn(Cc3ccccn3)nn2)cc1 [MIF-035]

IC50 ([1]; Table 19, data cell c6): 2.5 µM
IC50 [2, 3]: 1.2 µM
SMILES: COC(=O)c1cccc(Cn2cc(-c3ccc(O)cc3)nn2)c1 [MIF-036]

% Bound [2]: 70-90%
SMILES: O=C(O)c1cccc(Cn2cc(-c3ccc(O)cc3)nn2)c1 [MIF-037]

IC50 ([2]; Table 17, read-out: CD74 IC50): 900 µM
SMILES: Oc1ccc2c(c1)oc1ccccc12 [MIF-039]

SMILES: NC(=O)c1nc2ccccc2n1Cc1ccccc1 [MIF-062]
HPP Max Inhib ([1]; Table 5): 16%
concentration of CD74 % MaxInhib (number after @) ([2]; Table 5): 1.87 µM
CD74 % MaxInhib ([2]; Table 5): 25%

SMILES: CN(C)C(=O)c1nc2ccccc2n1Cc1ccccc1 [MIF-063]
HPP Max Inhib ([1]; Table 5): 0%
concentration of CD74 % MaxInhib (number after @) ([2]; Table 5): 1.87 µM
CD74 % MaxInhib ([2]; Table 5): 27%

SMILES: CNC(=O)c1nc2ccccc2n1Cc1ccccc1 [MIF-065]
HPP Max Inhib ([1]; Table 5): 13%
concentration of CD74 % MaxInhib (number after @) ([2]; Table 5): 1.87 µM
CD74 % MaxInhib ([2]; Table 5): 16%

HPP Max Inhib ([1]; Table 5): 18%
concentration of CD74 % MaxInhib (number after @) ([2]; Table 5): 1.87 µM
CD74 % MaxInhib ([2]; Table 5): 25%
SMILES: COCCc1nc2ccccc2n1Cc1ccccc1 [MIF-066]

IC50 ([1]; Table 18): 760 µM
concentration of C74 % MaxInhib (number after @) ([2]; Table 18): 0.0078
C74 % MaxInhib ([2]; Table 18): 14%
SMILES: Oc1ccc(-n2cc(Cc3ccccc3)nn2)cc1F [MIF-069]

concentration of HPP Max Inhib (number after @) ([1]; Table 18): 1000
HPP Max Inhib ([1]; Table 18, number before @): 35%
concentration of C74 % MaxInhib (number after @) ([2]; Table 18): 0.0078
C74 % MaxInhib ([2]; Table 18): 14%
SMILES: COc1ccccc1Cc1cn(-c2ccc(O)cc2)nn1 [MIF-070]

IC50 ([1]; Table 18): 1000 µM
concentration of C74 % MaxInhib (number after @) ([2]; Table 18): 0.24
C74 % MaxInhib ([2]; Table 18): 9%
SMILES: Oc1ccc(-n2cc(Cc3ccccc3O)nn2)cc1 [MIF-071]

concentration of HPP Max Inhib (number after @) ([1]; Table 13): 1000 µM
HPP Max Inhib [1, 4]: 30%
concentration of CD74 % MaxInhib (number after @) ([2]; Table 13): 0.24 µM
CD74 % MaxInhib ([2]; Table 13): 9%
SMILES: O=C(c1cc2ccccc2o1)c1cc2cc(O)ccc2o1 [MIF-072]

concentration of HPP Max Inhib (number after @) ([1]; Table 13): 700 µM
HPP Max Inhib [1, 4]: 47%
SMILES: Cc1ccc2oc(C(=O)c3cc4ccccc4o3)cc2c1 [MIF-078]

concentration of CD74 % MaxInhib (number after @) ([2]; Table 14): 0.24 µM
CD74 % MaxInhib ([2]; Table 14): 19%
SMILES: Cc1ccc2cc(C(=O)N3CCc4ccccc43)oc2c1 [MIF-082]

IC50 ([1]; Table 18): 530 µM
SMILES: COc1cccc(Cc2cn(-c3ccc(O)cc3)nn2)c1OC [MIF-084]

SMILES: O=Cc1cccc(-n2sc3cc(F)ccc3c2=O)c1 [MIF-135]
IC50 ([1]; Table 6, data cell c7): 6 µM

SMILES: COCc1cccc(-n2sc3cc(F)ccc3c2=O)c1 [MIF-136]
IC50 ([1]; Table 6, data cell c7): 2.4 µM

SMILES: COc1cccc(-n2sc3ccc(F)cc3c2=O)c1 [MIF-144]
IC50 ([1]; Table 6, data cell c7): 2.75 µM
